Like-named read-outs stand apart in the source and are kept apart here.
Experiments:
[1] = tested on: carrageenan-induced paw edema; test: Carrageenan-induced acute inflammatory (paw edema) model; type: in vivo, Sprague Dawley (SD) rats; conditions: as compared to control (no treatment)
Description: Carrageenan-Induced Acute Inflammatory Model
The anti-inflammatory effect of the gel formulations was assessed using carrageenan-induced paw edema model (Whiteley and Dalrymple 1998, Lee and Crosby 1999, Sammons, Raval et al. 2000, Cong, Khaziakhmetova et al. 2015) using Sprague Dawley (SD) rats. This model was deduced suitable for the evaluation of anti-inflammatory and anti-hyperalgesic drugs (Whiteley and Dalrymple 1998, Lee and Crosby 1999, Sammons, Raval et al. 2000, Cong, Khaziakhmetova et al. 2015). Edema was induced in male Sprague Dawley (SD) rats by sub-plantar injection of 50 μL of 0.1% λ-carrageenan (22049 SIGMA λ-Carrageenan plant-mucopolysaccharide, Sigma-Aldrich) gel in nuclease free water into the left hind paw of the animals. The inventors evaluated the intensity, development, and duration of the induced inflammation by measurements of rat paw volume using a digital plethysmometer (LE 7500, Panlab, Harvard Apparatus). Measurements were made prior to edema induction (base-line volume) and at 1, 2, 4, 6, 8, 12, and 24 hrs after sub-plantar carrageenan injection. The intensity of inflammation was assessed by calculating the percentage of increase in paw volume against the base-line measurements. Animals were divided into 4 groups of 4 rats each; group 1: control (no treatment); group 2: CBD gel (Gel A); group 3: CBG gel (Gel I); and group 4: THCV gel (Gel J). […] Therefore, placebo gels were not considered in the study.

[2] = Pre-formulation solubility of CBD, THCV and CBG in solvents; type: physicochemical
Description: Pre-Formulation Studies: Solubility of CBD, THCV and CBG
The solubility of APIs including CBD, CBG and THCV was determined in various solvents including dimethyl sulfoxide (DMSO), N-Methyl-2-pyrrolidone (NMP), and PEG 400. Briefly, 100 mg of each API was dissolved in 0.5 ml of DMSO, NMP, PEG400 and vortexed until it dissolved completely. All the solutions were then visually observed for any undissolved particles. Further, all the solubility samples were centrifuged, and the supernatant were collected. Samples were then analyzed using HPLC for the amount of drug solubilized in each solvent.

[3] = solution in propylene glycol, water and ethanol, Stinchcomb et al 2004, cited from earlier work
[4] = In-vitro skin permeation study (IVPT), Franz diffusion cells; type: in vitro ADME, Human; conditions: for cumulative drug permeation: end of 72 hrs
Description: In-Vitro Skin Permeation Study
The in-vitro permeation and deposition studies were performed under occlusive conditions using jacketed Franz diffusion cells with a 0.636 cm2 permeation area and 5 mL receptor chamber volume. Human skin used was obtained from The New York Fire Fighter's skin bank and originated from the right and left posterior leg regions. Dermatomed, cryopressed split thickness skin with epidermis and dermis were delivered in plastic bags and stored at −80° C. until further use.
Skin was thawed in water for 45 minutes and was cut into small pieces and mounted on Franz cells. Receptor medium containing PBS with 25% (v/v) ethanol and 5% (v/v) Tween 80 was used for the IVPT study. 0.01% (w/v) sodium azide was added in the receiving media and sonicated for 20 mins to degasify it. To ensure the absence of bubbles in the receptor chamber, each cell was turned upside down to allow release of air though the sampling port. The cells were then left to equilibrate for about 10 mins before application of hydrogel samples. To begin the permeation experiment, 0.2 mL samples of each formulation was pipetted onto the donor compartment. The donor compartment of each cell was sealed with parafilm and perforated with a needle and the fastened to the receiving compartment using a clamp. Following the completion of the experimental setup, the Franz diffusion cells were blanketed to prevent photo-degradation of samples and the system kept at 32.3° C. with the use of its circulating water bath to maintain the skin surface temperature of 32° C. throughout the duration of the experiment. A 72 hr experimentation duration was employed with sampling times set at 24 hr increments. 1 mL samples were withdrawn from the receptor chamber via the sampling port and analyzed by HPLC, and the entire remaining receiving media in the receptor chamber was discarded and replaced with a fresh batch. The cumulative amount of drug permeated through the skin per unit area (Qp) was calculated from drug concentration in the receptor fluid and plotted as a function of time. The steady-state flux (J) was determined as the slope of the linear portion of the plot.

[5] = in DMSO, NMP, PEG 400 and lactic acid

Structure (SMILES) | paw edema [1] | solubility [2, 5] | cumulative amount of CBD permeation ([3]; end of 48 hrs) [µg] | maximum flux ([3]; 48 hrs IVPT) [μg/cm^2/hr] | cumulative drug permeated in the receiving media ([4]; 24 hrs, human skin, gel 10% w/w) | cumulative drug permeation ([4]; human skin, gel 10% w/w) | solubility [2] | drug permeation ([4]; 24 hours post administration)
C=C(C)[C@@H]1CCC(C)=C[C@H]1c1c(O)cc(CCCCC)cc1O [CBD, Cannabidiol, reference compound] | significantly (p<0.0001) reduced | high solubility | ~78.61 | ~1.47 | – | – | – | –
CCCCCc1cc(O)c(C/C=C(\C)CCC=C(C)C)c(O)c1 [CBG, Cannabigerol] | significantly (p<0.0001) reduced | – | – | – | at least 136 μg/cm^2 | at least 321 μg/cm^2 | high solubility | –
CCCc1cc(O)c2c(c1)OC(C)(C)[C@@H]1CCC(C)=C[C@@H]21 [THCV, Tetrahydrocannabivarin] | significantly (p<0.0001) reduced | high solubility | – | – | – | at least 2124 μg/cm^2 | – | at least 843 g/cm^2

From US12233043B1, “Method of transdermal delivery of cannabinoid compositions” (Florida A&M University, priority 2022, dated 2025)
